Here are results for 24 compounds from patent publication US8134015B2, “Compound inhibiting in vivo phosphorous transport and medicine containing the same” (Kyowa Hakko Kirin Co., Ltd., priority 2003, dated 2012).

Broadly, the IC50 is the concentration needed to halve the response being measured. What is called inhibition is the share of the control response that was lost under treatment. A high value points to a response far below the control.

In the first assay the target is T1, rat NaPi-2b (Rattus norvegicus, UniProt Q9JJ09).
T1 construct: expressed in transfected cells; host or cells: Xenopus oocytes injected with cRNA
T1 sequence (Q9JJ09 1-695): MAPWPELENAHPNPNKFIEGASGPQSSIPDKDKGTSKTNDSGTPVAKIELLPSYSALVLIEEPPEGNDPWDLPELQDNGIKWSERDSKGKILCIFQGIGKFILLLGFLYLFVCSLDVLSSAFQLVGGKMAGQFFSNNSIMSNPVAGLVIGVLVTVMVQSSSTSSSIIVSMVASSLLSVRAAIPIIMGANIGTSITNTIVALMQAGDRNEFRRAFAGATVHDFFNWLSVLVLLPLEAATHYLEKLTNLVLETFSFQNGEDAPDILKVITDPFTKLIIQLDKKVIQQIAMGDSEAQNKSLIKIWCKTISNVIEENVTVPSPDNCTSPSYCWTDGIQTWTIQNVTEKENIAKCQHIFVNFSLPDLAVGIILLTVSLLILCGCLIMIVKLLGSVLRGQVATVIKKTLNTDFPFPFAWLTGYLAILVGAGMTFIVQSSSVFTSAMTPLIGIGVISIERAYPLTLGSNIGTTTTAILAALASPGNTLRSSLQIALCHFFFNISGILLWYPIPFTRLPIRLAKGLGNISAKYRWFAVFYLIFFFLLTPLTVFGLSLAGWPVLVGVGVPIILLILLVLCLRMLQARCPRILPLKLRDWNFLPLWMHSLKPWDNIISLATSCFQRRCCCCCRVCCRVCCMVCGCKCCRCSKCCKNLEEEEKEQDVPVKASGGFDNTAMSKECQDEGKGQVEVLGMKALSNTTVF
Kind of assay: Sodium-dependent phosphate uptake of Xenopus oocytes which expressed NaPi-2b (32P). The class given is cell-based. The conditions noted are these: Xenopus oocytes expressing rat NaPi-2b, 32P radioactive phosphorus; read-out: IC50 (phosphate uptake inhibitory activity). The essentials: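 Read-out is 32P phosphate uptake into Xenopus oocytes expressing rat intestinal NaPi-2b (cRNA injection, 2-day culture). Inhibition at 300 μM and 100 μM was derived from a single inhibition curve and given as percent.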
In the case of `Cc1cccc(/C=N/NC(=O)c2cc(Br)ccc2NC(=O)c2ccccn2)c1` [Compound 497, Pyridin-2-carboxylic acid [4-bromo-2-(3-methyl-benzylidene-hydrazinocarbonyl)-phenyl]-amide], the IC50 was determined as 0.51 µM. As to `Cc1ccc(/C=N/NC(=O)c2cc(Br)ccc2NC(=O)c2ccc(CN(C)CC(O)c3ccc(O)cc3)cc2)cc1C` (stereo not drawn) [Compound 724, N-[4-Bromo-2-(3,4-dimethyl-benzylidene-hydrazinocarbonyl)-phenyl]-4-({[2-hydroxy-2-(4-hydroxy-phenyl)-ethyl]-methyl-amino}-methyl)-benzamide], the IC50 worked out at 17.1 µM. In the case of `COc1ccc(C(=O)Nc2ccccc2C(=O)N/N=C/c2cccnc2)cc1` [Compound 112, 4-Methoxy-N-[2-(pyridin-3-ylmethylene-hydrazinocarbonyl)-phenyl]-benzamide], the IC50 stood at 42 µM. For the compound `COc1ccccc1/C=C/C=N/NC(=O)c1cc(Cl)ccc1NC(=O)c1cccnc1` [Compound 354, N-{4-Chloro-2-[3-(2-methoxy-phenyl)-allylidene-hydrazinocarbonyl]-phenyl}-nicotinamide], the IC50 worked out at 1.54 µM. With `Cc1cc(/C=N/NC(=O)c2ccccc2NC(=O)c2ccncc2)oc1C` [Compound 219, N-[2-(4,5-Dimethyl-furan-2-ylmethylene-hydrazinocarbonyl)-phenyl]-isonicotinamide], the IC50 was found to be 9.07 µM.

Take `COc1ccc(/C=N/NC(=O)c2ccccc2NC(=O)c2ccc(OC)c(OC)c2)cc1Br` [Compound 34, N-[2-(3-Bromo-4-methoxy-benzylidene-hydrazinocarbonyl)-phenyl]-3,4-dimethoxy-benzamide]: the IC50 came to 1.5 µM. As for `Cc1cccc(/C=N/NC(=O)c2cc(Br)ccc2NC(=O)c2cccc(CSc3nc[nH]n3)c2)c1` [Compound 269, N-[4-Bromo-2-(3-methyl-benzylidene-hydrazinocarbonyl)-phenyl]-3-(1H-[1,2,4]triazol-3-ylsulfanylmethyl)-benzamide], the 50% inhibitory concentration (IC50) turned out to be 2.19 µM.

Turning to `Cc1csc(NC(=O)c2cccc(CN3CCC(O)CC3)c2)c1C(=O)N/N=C/c1ccc(F)cc1` [Compound 595, N-[3-(4-Fluoro-benzylidene-hydrazinocarbonyl)-4-methyl-thiophen-2-yl]-3-(4-hydroxy-piperidin-1-ylmethyl)-benzamide], the IC50 came out at 3.87 µM. With `CCN(CCO)Cc1ccc(C(=O)Nc2ccc(Cl)cc2C(=O)N/N=C/c2ccc(O)cc2)cc1` [Compound 441, N-[4-Chloro-2-(4-hydroxy-benzylidene-hydrazinocarbonyl)-phenyl]-4-{[ethyl-(2-hydroxy-ethyl)-amino]-methyl}-benzamide], the IC50 came out at 40.1 µM. The same measure, in the same setting: for `Cc1ccc(/C=N/NC(=O)c2cc(N3CCCC3)ccc2NC(=O)c2cccc(CSCCO)c2)cc1C` [Compound 919, N-[2-(3,4-Dimethyl-benzylidene-hydrazinocarbonyl)-4-pyrrolidin-1-yl-phenyl]-3-(2-hydroxy-ethylsulfanylmethyl)-benzamide] the value was 0.31 µM. The same measure, in the same setting: for `CCOc1ccc(C(=O)Nc2ccc(Br)cc2C(=O)N/N=C/c2cccc(F)c2)cc1` [Compound 501, N-[4-Bromo-2-(3-fluoro-benzylidene-hydrazinocarbonyl)-phenyl]-4-ethoxy-benzamide] the value was 23.1 µM; for `O=C(Nc1ccc(Br)cc1C(=O)N/N=C/c1cccc(F)c1)c1ccccn1` [Compound 495, Pyridin-2-carboxylic acid[4-bromo-2-(3-fluoro-benzylidene-hydrazinocarbonyl)-phenyl]-amide], 0.35 µM.

As to `CC1CCN(c2ccc(NC(=O)c3cccc(CSCCO)c3)c(C(=O)N/N=C/c3ccc(Cl)c(C(F)(F)F)c3)c2)CC1` [Compound 1070, N-[2-(4-Chloro-3-trifluoromethyl-benzylidene-hydrazinocarbonyl)-4-(4-methyl-piperidin-1-yl)-phenyl]-3-(2-hydroxy-ethylsulfanylmethyl)-benzamide], the IC50 was less than 1 µM. Take `COc1ccc(C(=O)Nc2ccc(Br)cc2C(=O)N/N=C/c2ccc(O)cc2)cc1OC` [Compound 64, N-[4-Bromo-2-(4-hydroxy-benzylidene-hydrazinocarbonyl)-phenyl]-3,4-dimethoxy-benzamide]: the IC50 stood at 3.77 µM.

Consider `COc1ccc(/C=N/NC(=O)c2cc3ccccc3cc2NC(=O)c2cccc(CN3CCN(CCO)CC3)c2)cc1` [Compound 973, 3-[4-(2-Hydroxy-ethyl)-piperazin-1-ylmethyl]-N-[3-(4-methoxy-benzylidene-hydrazinocarbonyl)-naphthalen-2-yl]-benzamide], for which the half-maximal inhibitory concentration (IC50) is less than 3 µM. For `COc1ccccc1/C=C/C=N/NC(=O)c1cc(Br)ccc1NC(=O)c1ccncc1` [Compound 353, N-{4-Bromo-2-[3-(2-methoxy-phenyl)-allylidene-hydrazinocarbonyl]-phenyl}-isonicotinamide], the IC50 is 8.85 µM.

`CCN(CC)CCNCc1ccc(C(=O)Nc2ccc(Br)cc2C(=O)N/N=C/c2cccc(OC)c2)cc1` [Compound 299, N-[4-Bromo-2-(3-methoxy-benzylidene-hydrazinocarbonyl)-phenyl]-4-[(2-diethylamino-ethylamino)-methyl]-benzamide]: the IC50 was found to be 3.91 µM. For `CCN(CC)CCN(CCN(CC)CC)Cc1cccc(C(=O)Nc2scc(C)c2C(=O)N/N=C/c2ccc(OC)cc2)c1` [Compound 843, 3-{[Bis-(2-diethylamino-ethyl)-amino]-methyl}-N-[3-(4-methoxy-benzylidene-hydrazinocarbonyl)-4-methyl-thiophen-2-yl]-benzamide], the IC50 amounted to 4.19 µM.

In the case of `Cc1cccc(/C=N/NC(=O)c2cc(Br)ccc2NC(=O)c2ccc(CN3CCC(O)CC3)cc2)c1` [Compound 326, N-[4-Bromo-2-(3-methyl-benzylidene-hydrazinocarbonyl)-phenyl]-4-(4-hydroxy-piperidin-1-ylmethyl)-benzamide], the IC50 amounted to 2.1 µM.

Still in this assay, the particulars now being: phosphate uptake, oocytes expressing rat NaPi-2b; 300 μM, determined from inhibition curve.
Turning to `Cc1ccc(/C=N/NC(=O)c2scc(C)c2NC(=O)c2cccc(CN3CCC(O)CC3)c2)cc1C` [Compound 541, N-[2-(3,4-Dimethyl-benzylidene-hydrazinocarbonyl)-4-methyl-thiophen-3-yl]-3-(4-hydroxy-piperidin-1-ylmethyl)-benzamide], testing at 300 µM gave an inhibition of 32.2%. Same read-out and setting: for `Cc1cccc(/C=N/NC(=O)c2ccccc2NC(=O)c2ccccc2F)c1` [Compound 238, 2-Fluoro-N-[2-(3-methyl-benzylidene-hydrazinocarbonyl)-phenyl]-benzamide] the value was 30.6%. `COc1ccc2cc(/C=N/NC(=O)c3ccccc3NC(=O)c3ccc(OC)c(OC)c3)ccc2c1` [Compound 232, 3,4-Dimethoxy-N-[2-(6-methoxy-naphthalen-2-ylmethylene-hydrazinocarbonyl)-phenyl]-benzamide] registered an inhibition at 300 µM of 44.9%. Regarding `CCSCCNCc1ccc(C(=O)Nc2ccc(Br)cc2C(=O)N/N=C/c2cccc(OC)c2)cc1` [Compound 771, N-[4-Bromo-2-(3-methoxy-benzylidene-hydrazinocarbonyl)-phenyl]-4-[(2-ethylsulfanyl-ethylamino)-methyl]-benzamide], testing at 300 µM gave an inhibition of 85.1%. Consider `CC(C)(C)c1cccc(/C=N/NC(=O)c2ccccc2NC(=O)c2ccccc2F)c1O` [Compound 239, N-[2-(3-Tert-butyl-2-hydroxy-benzylidene-hydrazinocarbonyl)-phenyl]-2-fluoro-benzamide], for which at 300 µM the inhibition was 59.1%.
